{
  "source": "paper PMC5218480",
  "about": "(PLoS ONE, 2017)",
  "test_system": "MV-4-11 cells",
  "test": "Gene expression microarray analysis (Affymetrix PrimeView) and GSEA",
  "format": "cell-based, human",
  "design": "RFU PODN (11730768_x_at) / Fold change /veh PODN (11730768_x_at) / RFU LINC00158 (11744669_a_at) / Fold change /veh LINC00158 (11744669_a_at) / RFU DUSP10 (11751237_a_at) / Fold change /veh DUSP10 (11751237_a_at) / RFU ID3 (11757404_x_at) / Fold change /veh ID3 (11757404_x_at) / RFU PLEKHG5 (11737974_s_at) / Fold change /veh PLEKHG5 (11737974_s_at) / RFU LRRC4B (11730491_at) / Fold change /veh LRRC4B (11730491_at) / RFU GIMAP4 (11747438_a_at) / Fold change /veh GIMAP4 (11747438_a_at) / RFU KRT8 (11758183_x_at) / Fold change /veh KRT8 (11758183_x_at) / RFU CNN1 (11734310_a_at) / Fold change /veh CNN1 (11734310_a_at) / RFU VPS37D (11726825_at) / Fold change /veh VPS37D (11726825_at) / RFU C10orf10 (11716522_x_at) / Fold change /veh C10orf10 (11716522_x_at) / RFU KIR2DL2 /// KIR2DL4 /// KIR2DL5A /// KIR2DL5B /// KIR2DS1 /// KIR2DS2 /// KIR2DS3 /// KIR2DS4 /// KIR3DL3 /// KIR3DL3 /// KIR3DS1 (11738374_at) / Fold change /veh KIR2DL2 /// KIR2DL4 /// KIR2DL5A /// KIR2DL5B /// KIR2DS1 /// KIR2DS2 /// KIR2DS3 /// KIR2DS4 /// KIR3DL3 /// KIR3DL3 /// KIR3DS1 (11738374_at) / RFU C1QL1 (11718748_at) / Fold change /veh C1QL1 (11718748_at) / RFU TMPRSS4 (11747572_a_at) / Fold change /veh TMPRSS4 (11747572_a_at) / RFU HAMP (11756126_x_at) / Fold change /veh HAMP (11756126_x_at) / RFU RNFT2 (11725882_a_at) / Fold change /veh RNFT2 (11725882_a_at) / RFU NR4A2 (11747474_a_at) / Fold change /veh NR4A2 (11747474_a_at) / RFU ABCC12 (11746883_a_at) / Fold change /veh ABCC12 (11746883_a_at) / RFU TMEM136 (11760407_x_at) / Fold change /veh TMEM136 (11760407_x_at) / RFU CLDN22 /// WWC2 (11732394_at) / Fold change /veh CLDN22 /// WWC2 (11732394_at) / RFU HLA-DPB1 (11760878_x_at) / Fold change /veh HLA-DPB1 (11760878_x_at) / RFU SPINT1 (11716480_a_at) / Fold change /veh SPINT1 (11716480_a_at) / RFU GAP43 (11754022_s_at) / Fold change /veh GAP43 (11754022_s_at) / RFU A4GNT (11735810_at) / Fold change /veh A4GNT (11735810_at) / RFU PRB3 (11715151_x_at) / Fold change /veh PRB3 (11715151_x_at) / RFU TUBB4B (11761932_at) / Fold change /veh TUBB4B (11761932_at) / RFU CAPN14 (11732068_a_at) / Fold change /veh CAPN14 (11732068_a_at) / RFU TMCC2 (11721928_a_at) / Fold change /veh TMCC2 (11721928_a_at) / RFU IRGQ (11745062_a_at) / Fold change /veh IRGQ (11745062_a_at) / RFU FAM174B (11720279_a_at) / Fold change /veh FAM174B (11720279_a_at) / RFU TMPRSS4 (11748680_a_at) / Fold change /veh TMPRSS4 (11748680_a_at) / RFU FAM212B (11763350_a_at) / Fold change /veh FAM212B (11763350_a_at) / RFU PLEKHG5 (11743358_a_at) / Fold change /veh PLEKHG5 (11743358_a_at) / RFU ZSCAN30 (11745921_a_at) / Fold change /veh ZSCAN30 (11745921_a_at) / RFU CMKLR1 (11741424_a_at) / Fold change /veh CMKLR1 (11741424_a_at) / RFU LOC101060620 /// MAPK8IP1 (11723275_at) / Fold change /veh LOC101060620 /// MAPK8IP1 (11723275_at) / RFU SPTSSB (11747773_x_at) / Fold change /veh SPTSSB (11747773_x_at) / RFU PRSS12 (11739890_at) / Fold change /veh PRSS12 (11739890_at) / RFU BIN1 (11741810_x_at) / Fold change /veh BIN1 (11741810_x_at) / RFU WNT11 (11732464_a_at) / Fold change /veh WNT11 (11732464_a_at) / RFU C10orf10 (11716521_a_at) / Fold change /veh C10orf10 (11716521_a_at) / RFU C5orf56 (11738089_at) / Fold change /veh C5orf56 (11738089_at) / RFU CYB561 (11721691_x_at) / Fold change /veh CYB561 (11721691_x_at) / RFU ANKRD19P (11752326_a_at) / Fold change /veh ANKRD19P (11752326_a_at) / RFU OR2T12 /// OR2T33 /// OR2T8 (11738714_s_at) / Fold change /veh OR2T12 /// OR2T33 /// OR2T8 (11738714_s_at) / RFU VCAN (11748164_a_at) / Fold change /veh VCAN (11748164_a_at) / RFU JSRP1 (11732532_at) / Fold change /veh JSRP1 (11732532_at) / RFU KRTAP10-11 (11738290_x_at) / Fold change /veh KRTAP10-11 (11738290_x_at) / RFU MYO3A (11730013_a_at) / Fold change /veh MYO3A (11730013_a_at) / RFU EBF3 (11725865_a_at) / Fold change /veh EBF3 (11725865_a_at) / RFU CAMK2N1 (11719241_x_at) / Fold change /veh CAMK2N1 (11719241_x_at) / RFU C5orf56 (11738088_a_at) / Fold change /veh C5orf56 (11738088_a_at) / RFU OLFML3 (11715873_a_at) / Fold change /veh OLFML3 (11715873_a_at) / RFU LOC100653217 /// NTM (11731650_a_at) / Fold change /veh LOC100653217 /// NTM (11731650_a_at) / RFU MAPK11 (11762145_a_at) / Fold change /veh MAPK11 (11762145_a_at) / RFU FIZ1 (11724087_x_at) / Fold change /veh FIZ1 (11724087_x_at) / RFU OASL (11726364_x_at) / Fold change /veh OASL (11726364_x_at) / RFU SOX15 (11748057_x_at) / Fold change /veh SOX15 (11748057_x_at) / RFU CD79A (11719716_a_at) / Fold change /veh CD79A (11719716_a_at) / RFU HIST1H1D (11736915_at) / Fold change /veh HIST1H1D (11736915_at) / RFU CASKIN2 (11723855_a_at) / Fold change /veh CASKIN2 (11723855_a_at) / RFU LOC730098 (11760151_x_at) / Fold change /veh LOC730098 (11760151_x_at) / RFU OR4N2 (11742367_at) / Fold change /veh OR4N2 (11742367_at) / RFU PRRT2 (11749266_a_at) / Fold change /veh PRRT2 (11749266_a_at) / RFU SNX32 (11753110_a_at) / Fold change /veh SNX32 (11753110_a_at) / RFU CDHR5 (11726645_a_at) / Fold change /veh CDHR5 (11726645_a_at) / RFU RCAN1 (11760418_a_at) / Fold change /veh RCAN1 (11760418_a_at) / RFU FAM167A (11723789_a_at) / Fold change /veh FAM167A (11723789_a_at) / RFU FAM26E (11764081_at) / Fold change /veh FAM26E (11764081_at) / RFU ISYNA1 (11749810_s_at) / Fold change /veh ISYNA1 (11749810_s_at) / RFU ACY1 (11761880_at) / Fold change /veh ACY1 (11761880_at) / RFU 11764098_at / Fold change /veh 11764098_at / RFU SAMD14 (11745864_x_at) / Fold change /veh SAMD14 (11745864_x_at) / RFU NPB (11741838_a_at) / Fold change /veh NPB (11741838_a_at) / RFU TMPRSS6 (11731388_a_at) / Fold change /veh TMPRSS6 (11731388_a_at) / RFU KRTAP10-2 (11738614_at) / Fold change /veh KRTAP10-2 (11738614_at) / RFU ARHGAP8 /// PRR5-ARHGAP8 (11727945_x_at) / Fold change /veh ARHGAP8 /// PRR5-ARHGAP8 (11727945_x_at) / RFU KRTAP5-7 /// NADSYN1 (11734609_at) / Fold change /veh KRTAP5-7 /// NADSYN1 (11734609_at) / RFU RASL12 (11751679_a_at) / Fold change /veh RASL12 (11751679_a_at) / RFU CDKN2B (11736163_a_at) / Fold change /veh CDKN2B (11736163_a_at) / RFU PRF1 (11729649_at) / Fold change /veh PRF1 (11729649_at) / RFU, ZNF638 /// ZNF638-IT1 / Fold change vs veh, ZNF638 /// ZNF638-IT1 / RFU, PANK3 / Fold change vs veh, PANK3 / RFU, SH3YL1 / Fold change vs veh, SH3YL1 / RFU, ZEB2 / Fold change vs veh, ZEB2 / RFU, NRIP1 / Fold change vs veh, NRIP1 / RFU, PTTG1IP / Fold change vs veh, PTTG1IP / RFU, CAPN2 / Fold change vs veh, CAPN2 / RFU, MED14 / Fold change vs veh, MED14 / RFU, SNORA58 / Fold change vs veh, SNORA58 / RFU, C1orf63 / Fold change vs veh, C1orf63 / RFU, LRRFIP1 / Fold change vs veh, LRRFIP1 / RFU, NDUFAF7 / Fold change vs veh, NDUFAF7 / RFU, SLC12A2 / Fold change vs veh, SLC12A2 / RFU, IBTK / Fold change vs veh, IBTK / RFU, ESF1 / Fold change vs veh, ESF1 / Fold change vs veh, TMEM50B / RFU, TAOK1 / Fold change vs veh, TAOK1 / RFU, ACBD3 / Fold change vs veh, ACBD3 / RFU, TMA16 / Fold change vs veh, TMA16 / RFU, RWDD3 / Fold change vs veh, RWDD3 / RFU, BCAT1 / Fold change vs veh, BCAT1 / RFU, EDEM3 / Fold change vs veh, EDEM3 / RFU, TMEM33 / Fold change vs veh, TMEM33 / RFU, WDR75 / Fold change vs veh, WDR75 / RFU, AHCTF1 / Fold change vs veh, AHCTF1 / RFU, TFRC / Fold change vs veh, TFRC / RFU, ZDHHC17 / Fold change vs veh, ZDHHC17 / RFU, NOM1 / Fold change vs veh, NOM1 / RFU, ARL8B / Fold change vs veh, ARL8B / RFU, ZBTB11 / Fold change vs veh, ZBTB11 / RFU, TAMM41 / Fold change vs veh, TAMM41 / RFU, KIAA1704 /// LOC100996395 / Fold change vs veh, KIAA1704 /// LOC100996395 / RFU, ING1 / Fold change vs veh, ING1 / RFU, TRMT61B / Fold change vs veh, TRMT61B / RFU, FUBP3 / Fold change vs veh, FUBP3 / RFU, TP53 / Fold change vs veh, TP53 / RFU, TNKS2 / Fold change vs veh, TNKS2 / RFU, ZFP14 / Fold change vs veh, ZFP14 / RFU, ACTR2 / Fold change vs veh, ACTR2 / RFU, PPP3R1 / Fold change vs veh, PPP3R1 / RFU, PIK3R1 / Fold change vs veh, PIK3R1 / RFU, HNRNPA1 / Fold change vs veh, HNRNPA1 / RFU, RNF170 / Fold change vs veh, RNF170 / RFU, ZNF28 / Fold change vs veh, ZNF28 / RFU, RNGTT / Fold change vs veh, RNGTT / RFU, OGT / Fold change vs veh, OGT / RFU, BRD1 / Fold change vs veh, BRD1 / RFU, MARS / Fold change vs veh, MARS / RFU, ZNF655 / Fold change vs veh, ZNF655 / RFU, FAHD1 / Fold change vs veh, FAHD1 / RFU, BDP1 / Fold change vs veh, BDP1 / RFU, LRRCC1 / Fold change vs veh, LRRCC1 / RFU, ARID1A / Fold change vs veh, ARID1A / RFU, ZNF146 / Fold change vs veh, ZNF146 / RFU, ZNF330 / Fold change vs veh, ZNF330 / RFU, GPN3 / Fold change vs veh, GPN3 / RFU, C9orf123 / Fold change vs veh, C9orf123 / RFU, N4BP2L2 / Fold change vs veh, N4BP2L2 / RFU, ARFIP1 / Fold change vs veh, ARFIP1 / RFU, FAM179B / Fold change vs veh, FAM179B / RFU, BCL10 / Fold change vs veh, BCL10 / RFU, UHRF1BP1L / Fold change vs veh, UHRF1BP1L / RFU, BET1 / Fold change vs veh, BET1 / RFU, CNOT2 / Fold change vs veh, CNOT2 / RFU, ZNF268 / Fold change vs veh, ZNF268 / Fold change vs veh, ZNF507 / RFU, DGCR2 / Fold change vs veh, DGCR2 / RFU, WDSUB1 / Fold change vs veh, WDSUB1 / Fold change vs veh, HSP90B1 /// MIR3652 / RFU, ADSS / Fold change vs veh, ADSS / RFU, GK / Fold change vs veh, GK / RFU, ZNF148 / Fold change vs veh, ZNF148 / RFU, TAF9 / Fold change vs veh, TAF9 / RFU, SLC1A5 / Fold change vs veh, SLC1A5 / RFU, SLMO2 / Fold change vs veh, SLMO2 / RFU, ABCC4 / Fold change vs veh, ABCC4 / RFU, LOC101060439 /// RAP1B / Fold change vs veh, LOC101060439 /// RAP1B / RFU, RFX7 / Fold change vs veh, RFX7 / RFU, GTPBP10 / Fold change vs veh, GTPBP10 / RFU, CNEP1R1 / Fold change vs veh, CNEP1R1 / RFU, BIVM-ERCC5 /// ERCC5 / Fold change vs veh, BIVM-ERCC5 /// ERCC5 / RFU, ILF3 / Fold change vs veh, ILF3 / RFU 11762660_at / Fold change /veh 11762660_at / RFU VCAN (11757783_s_at) / Fold change /veh VCAN (11757783_s_at) / RFU DDX43 (11728927_at) / Fold change /veh DDX43 (11728927_at) / RFU KRT8 (11758188_x_at) / Fold change /veh KRT8 (11758188_x_at) / RFU NKD1 (11759106_at) / Fold change /veh NKD1 (11759106_at) / RFU SRD5A1 (11742802_a_at) / Fold change /veh SRD5A1 (11742802_a_at) / RFU TPSAB1 /// TPSB2 (11721975_s_at) / Fold change /veh TPSAB1 /// TPSB2 (11721975_s_at) / RFU GSTM3 (11746129_a_at) / Fold change /veh GSTM3 (11746129_a_at) / RFU IL23R (11737362_x_at) / Fold change /veh IL23R (11737362_x_at) / RFU TMEM51 (11727254_a_at) / Fold change /veh TMEM51 (11727254_a_at) / RFU PIWIL2 (11732686_x_at) / Fold change /veh PIWIL2 (11732686_x_at) / RFU ORM1 (11744905_x_at) / Fold change /veh ORM1 (11744905_x_at) / RFU CCDC152 (11743942_at) / Fold change /veh CCDC152 (11743942_at) / RFU ECM1 (11717891_a_at) / Fold change /veh ECM1 (11717891_a_at) / RFU IL23R (11748794_a_at) / Fold change /veh IL23R (11748794_a_at) / RFU TNFAIP8L3 (11732012_x_at) / Fold change /veh TNFAIP8L3 (11732012_x_at) / RFU MBOAT4 (11741988_at) / Fold change /veh MBOAT4 (11741988_at) / RFU 11764193_at / Fold change /veh 11764193_at / RFU TMEM53 (11763286_at) / Fold change /veh TMEM53 (11763286_at) / RFU MAGEB2 (11727129_at) / Fold change /veh MAGEB2 (11727129_at) / RFU TMEM200A (11744735_a_at) / Fold change /veh TMEM200A (11744735_a_at) / RFU CCDC152 (11751479_a_at) / Fold change /veh CCDC152 (11751479_a_at) / RFU FAM211A (11726209_a_at) / Fold change /veh FAM211A (11726209_a_at) / RFU RGS16 (11746705_a_at) / Fold change /veh RGS16 (11746705_a_at) / RFU VCAN (11755009_s_at) / Fold change /veh VCAN (11755009_s_at) / RFU RHOB (11743442_s_at) / Fold change /veh RHOB (11743442_s_at) / RFU RGS16 (11720943_a_at) / Fold change /veh RGS16 (11720943_a_at) / RFU RGS16 (11720944_at) / Fold change /veh RGS16 (11720944_at) / RFU, VPS4B / Fold change vs veh, VPS4B / RFU, CREB1 / Fold change vs veh, CREB1 / RFU, DNAJC13 / Fold change vs veh, DNAJC13 / RFU, GNAQ / Fold change vs veh, GNAQ / RFU, CDK5R1 / Fold change vs veh, CDK5R1 / RFU, ZRANB3 / Fold change vs veh, ZRANB3 / RFU, CUL4A / Fold change vs veh, CUL4A / RFU, CCNY / Fold change vs veh, CCNY / RFU, UFL1 / Fold change vs veh, UFL1 / RFU, COG3 / Fold change vs veh, COG3 / RFU, DIAPH2 / Fold change vs veh, DIAPH2 / RFU, SKA2 / Fold change vs veh, SKA2 / RFU, AFF3 / Fold change vs veh, AFF3 / RFU, LMF1 / Fold change vs veh, LMF1 / RFU, IPO11 / Fold change vs veh, IPO11 / RFU, DFFB / Fold change vs veh, DFFB / RFU, FOXP1 / Fold change vs veh, FOXP1 / RFU, CARD8 / Fold change vs veh, CARD8 / RFU, STRN3 / Fold change vs veh, STRN3 / RFU, ADK / Fold change vs veh, ADK / RFU, RASSF2 / Fold change vs veh, RASSF2 / RFU, WIPF1 / Fold change vs veh, WIPF1 / RFU, LARP1B / Fold change vs veh, LARP1B / RFU, RASA1 / Fold change vs veh, RASA1 / RFU, RB1 / Fold change vs veh, RB1 / RFU, PPFIA1 / Fold change vs veh, PPFIA1 / RFU, MAT2A / Fold change vs veh, MAT2A / RFU, CCT5 / Fold change vs veh, CCT5 / RFU, WDR92 / Fold change vs veh, WDR92 / RFU, CUX1 / Fold change vs veh, CUX1 / RFU, TTC7A / Fold change vs veh, TTC7A / RFU, TMEM135 / Fold change vs veh, TMEM135 / RFU, DEPTOR / Fold change vs veh, DEPTOR / RFU, CPM / Fold change vs veh, CPM / RFU, DNAJB6 / Fold change vs veh, DNAJB6 / RFU, CACNA2D3 / Fold change vs veh, CACNA2D3 / RFU, DTX4 / Fold change vs veh, DTX4 / RFU, TFCP2 / Fold change vs veh, TFCP2 / RFU, GMCL1 /// GMCL1P1 / Fold change vs veh, GMCL1 /// GMCL1P1 / RFU, AEBP2 / Fold change vs veh, AEBP2 / RFU, SNHG1 /// SNORD22 /// SNORD25 /// SNORD26 /// SNORD27 /// SNORD28 /// SNORD29 /// SNORD31 / Fold change vs veh, SNHG1 /// SNORD22 /// SNORD25 /// SNORD26 /// SNORD27 /// SNORD28 /// SNORD29 /// SNORD31 / Fold change (Aza/veh), C12orf56 (ProbeSet 11735607_a_at) / Fold change (ACY-1035/veh), C12orf56 (ProbeSet 11735607_a_at) / Fold change (Aza/veh), FGFR1OP (ProbeSet 11751329_s_at) / Fold change (ACY-1035/veh), FGFR1OP (ProbeSet 11751329_s_at) / Fold change (Aza/veh), VPS36 (ProbeSet 11739960_a_at) / Fold change (ACY-1035/veh), VPS36 (ProbeSet 11739960_a_at) / RFU SYPL1 (11715823_x_at) / Fold change /veh SYPL1 (11715823_x_at) / RFU IGFBP7 (11715501_s_at) / Fold change /veh IGFBP7 (11715501_s_at) / RFU REEP3 (11722064_at) / Fold change /veh REEP3 (11722064_at) / RFU IGLL1 (11728026_x_at) / Fold change /veh IGLL1 (11728026_x_at): dose or concentration left out as unconfirmed",
  "details": "ProbeSet 11755070_a_at; LIST D",
  "data": [
    {"smiles": "Nc1ncn([C@@H]2O[C@H](CO)[C@@H](O)[C@H]2O)c(=O)n1", "note": "[azacitidine]", "values": [
      {"measurement": "Fold change vs veh, CARD8", "result": 0.80}
    ]}
  ]
}
